# According to US8952024B2, “Herbicidal pyrimidone derivatives” (E I du Pont de Nemours and Company, priority 2009, dated 2015):
# What was measured:
# Type in all cases: in vivo
# [1] = test system: windgrass (Apera spica-venti); assay: Test B postemergence plant response; details: for Windgrass plant response rating (0 to 100 scale): 62 g ai/ha, postemergence, 0 is no effect, 100 is complete control; for Plant response rating, Windgrass: Postemergence
# Outline: (§1)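 Visual ratings from 0 (no effect) to 100 (complete control), made against controls 13–15 days after treatment, kept in a greenhouse. Compounds were applied postemergence to potted plants at the 1- to 4-leaf stage (2–18 cm).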
# [2] = test system: chickweed (Stellaria media); assay: Test B postemergence plant response; details: for Chickweed plant response rating (0 to 100 scale): 62 g ai/ha, 0 is no effect
# Outline: as §1
# [3] = test system: canarygrass (Phalaris minor); assay: Test B postemergence plant response; details: for Canarygrass plant response rating (0 to 100 scale): 62 g ai/ha, 0 is no effect
# Outline: as §1
# rice (Oryza sativa) = assay: Test B flooded paddy test; details: for Plant response rating, Flood, Rice: 250 g ai/ha, flooded paddy test, visual rating on 0 to 100 scale (0 no effect, 100 complete control) after 13 to 15 days; for Plant response rating, Rice: Flood (flooded paddy test), 13 to 15 days
# Outline: (§2)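 Post-flood paddy application: compounds are introduced into water 3 cm deep over the soil, reaching plants at the 2-leaf stage. The water level is maintained, and after 13–15 days under greenhouse conditions, response is judged by eye relative to controls, where 100 means complete control.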
# [4] = test system: ducksalad (Heteranthera limosa); assay: Test B flooded paddy test; details: for Plant response rating, Flood, Ducksalad: 250 g ai/ha, flooded paddy test, visual rating on 0 to 100 scale (0 no effect, 100 complete control) after 13 to 15 days; for Plant response rating, Ducksalad: Flood (flooded paddy test), 13 to 15 days
# Outline: as §2
# corn (Zea mays) = assay: Test A pre-/postemergence plant response
# Outline: (§3)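 Greenhouse trial, ~10 days. Soil (loam/sand) sprayed preemergence after seeding; emerged plants (1–2 leaf, 2–10 cm) sprayed postemergence in parallel. Response = visual injury vs untreated control, 0–100.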
# [5] = test system: large crabgrass (Digitaria sanguinalis); assay: Test A pre-/postemergence plant response
# Outline: as §3
# [6] = test system: pigweed (Amaranthus retroflexus); assay: Test A pre-/postemergence plant response
# Outline: as §3
# [7] = test system: barnyardgrass (Echinochloa crus-galli); assay: Test A pre-/postemergence plant response
# Outline: as §3
# [8] = test system: wheat (Triticum aestivum); assay: Test A pre-/postemergence plant response
# Outline: as §3
# [9] = test system: giant foxtail (Setaria faberii); assay: Test A pre-/postemergence plant response
# Outline: as §3
# [10] = test system: morningglory (Ipomoea spp.); assay: Test A pre-/postemergence plant response
# Outline: as §3
# [11] = test system: velvetleaf (Abutilon theophrasti); assay: Test A pre-/postemergence plant response
# Outline: as §3
# [12] = 125 g ai/ha, scale 0 to 100 (0 no effect, 100 complete control)
# [13] = 31 g ai/ha, postemergence, scale 0 to 100, 0 is no effect, 100 is complete control
# [14] = postemergence, 100 is complete control, 13 to 15 days
# [15] = Postemergence, 125 g ai/ha, scale 0 to 100 (0 no effect, 100 complete control)
# [16] = Postemergence, 250 g ai/ha, scale 0 to 100 (0 no effect, 100 complete control)
# [17] = 62 g ai/ha, scale of 0 to 100 where 0 is no effect and 100 is complete control
# [18] = Postemergence, 125 g ai/ha, 0 to 100 scale where 0 is no effect and 100 is complete control
# [19] = Postemergence, 500 g ai/ha, 0 to 100 scale, 0 = no effect, 100 = complete control, approx. ten days
# [20] = Preemergence, 125 g ai/ha, 0 to 100 scale, 0 = no effect, 100 = complete control
# [21] = Preemergence, 500 g ai/ha, visual injury, 0 to 100 scale (0 no effect, 100 complete control), approx. ten days
# [22] = Postemergence, 31 g ai/ha, 0 to 100 scale (0 no effect, 100 complete control)
# [23] = Postemergence, 250 g ai/ha, scale 0 to 100 (0 no effect, 100 complete control), 13 to 15 days
# [24] = 125 g ai/ha, scale 0 to 100, 0 is no effect, 100 is complete control
# [25] = Flood, 31 g ai/ha, scale 0 to 100 (0 no effect, 100 complete control)
# [26] = Preemergence, 500 g ai/ha, 0 to 100 scale, 0 = no effect, 100 = complete control
smiles,measurement,setting,value
COCC(C)n1c(-c2ccccc2)ncc(C(=O)C2=C(O)CCCC2=O)c1=O (stereo not shown) [Compound 107],Windgrass plant response rating (0 to 100 scale),[1]; 13 to 15 days,40
same,"Plant response rating, Windgrass",[1]; [12],80
same,"Plant response rating, Chickweed",[2]; [13],98
same,Chickweed plant response rating (0 to 100 scale),[2]; [14],100
same,"Plant response rating, Chickweed",[2]; [15],100
same,"Plant response rating, Chickweed",[2]; [16],100
same,"Plant response rating, Canarygrass",[3]; [13],5
same,Canarygrass plant response rating (0 to 100 scale),[3]; [14],15
same,"Plant response rating, Canarygrass",[3]; [15],60
same,"Plant response rating, Canarygrass",[3]; [16],80
same,"Plant response rating, Flood, Rice",rice (Oryza sativa),45
same,"Plant response rating, Rice",rice (Oryza sativa); [17],20
same,"Plant response rating, Flood, Ducksalad",[4],40
same,"Plant response rating, Ducksalad",[4]; [17],0
same,"Plant response rating, Corn",corn (Zea mays); [18],0
same,"Plant response rating, Corn",corn (Zea mays); [19],50
same,"Plant response rating, Corn",corn (Zea mays); [20],20
same,"Plant response rating, Crabgrass, Large",[5]; [18],80
same,"Plant response rating, Crabgrass, Large",[5]; [19],90
same,"Plant response rating, Crabgrass, Large",[5]; [20],90
same,"Plant response rating, Crabgrass, Large",[5]; [21],100
same,"Plant response rating, Pigweed",[6]; [18],100
same,"Plant response rating, Pigweed",[6]; [19],100
same,"Plant response rating, Pigweed",[6]; [20],100
same,"Plant response rating, Pigweed",[6]; [21],100
same,"Plant response rating, Barnyardgrass",[7]; [18],90
same,"Plant response rating, Barnyardgrass",[7]; [19],90
same,"Plant response rating, Barnyardgrass",[7]; [20],40
same,"Plant response rating, Barnyardgrass",[7]; [21],90
same,"Plant response rating, Wheat",[8]; [18],0
same,"Plant response rating, Wheat",[8]; [19],10
same,"Plant response rating, Wheat",[8]; [20],0
same,"Plant response rating, Wheat",[8]; [21],0
same,"Plant response rating, Foxtail, Giant",[9]; [18],70
same,"Plant response rating, Foxtail, Giant",[9]; [19],90
same,"Plant response rating, Foxtail, Giant",[9]; [20],60
same,"Plant response rating, Foxtail, Giant",[9]; [21],90
same,"Plant response rating, Morningglory",[10]; [18],100
same,"Plant response rating, Morningglory",[10]; [19],100
same,"Plant response rating, Morningglory",[10]; [20],70
same,"Plant response rating, Morningglory",[10]; [21],100
same,"Plant response rating, Velvetleaf",[11]; [18],100
same,"Plant response rating, Velvetleaf",[11]; [19],100
same,"Plant response rating, Velvetleaf",[11]; [20],100
same,"Plant response rating, Velvetleaf",[11]; [21],100
COCCn1c(-c2cccc(Cl)c2)ncc(C(=O)C2=C(O)CCCC2=O)c1=O [Compound 147],Windgrass plant response rating (0 to 100 scale),[1]; 13 to 15 days,50
same,"Plant response rating, Windgrass","[1]; 31 g ai/ha, 0 to 100 scale (0 no effect, 100 complete control)",10
same,"Plant response rating, Windgrass",[1]; [12],55
same,"Plant response rating, Windgrass","[1]; 250 g ai/ha, scale 0 to 100 (0 no effect, 100 complete control), 13 to 15 days",70
same,Chickweed plant response rating (0 to 100 scale),[2]; [14],90
same,"Plant response rating, Chickweed",[2]; [22],70
same,"Plant response rating, Chickweed",[2]; [15],98
same,"Plant response rating, Chickweed",[2]; [23],98
same,Canarygrass plant response rating (0 to 100 scale),[3]; [14],0
same,"Plant response rating, Canarygrass",[3]; [22],0
same,"Plant response rating, Canarygrass",[3]; [15],5
same,"Plant response rating, Canarygrass",[3]; [23],5
same,"Plant response rating, Flood, Rice",rice (Oryza sativa),15
same,"Plant response rating, Rice",rice (Oryza sativa); [17],0
same,"Plant response rating, Rice",rice (Oryza sativa); [24],10
same,Rice plant response rating,rice (Oryza sativa); [25],0
same,"Plant response rating, Flood, Ducksalad",[4],100
same,"Plant response rating, Ducksalad",[4]; [17],60
same,"Plant response rating, Ducksalad",[4]; [24],80
same,Ducksalad plant response rating,[4]; [25],60
same,"Plant response rating, Corn",corn (Zea mays); [18],20
same,"Plant response rating, Corn",corn (Zea mays); [19],30
same,"Plant response rating, Corn",corn (Zea mays); [20],0
same,"Plant response rating, Corn",corn (Zea mays); [21],0
same,"Plant response rating, Crabgrass, Large",[5]; [18],80
same,"Plant response rating, Crabgrass, Large",[5]; [19],90
same,"Plant response rating, Crabgrass, Large",[5]; [20],100
same,"Plant response rating, Crabgrass, Large",[5]; [21],100
same,"Plant response rating, Pigweed",[6]; [18],100
same,"Plant response rating, Pigweed",[6]; [19],100
same,"Plant response rating, Pigweed",[6]; [20],90
same,"Plant response rating, Pigweed",[6]; [21],100
same,"Plant response rating, Barnyardgrass",[7]; [18],80
same,"Plant response rating, Barnyardgrass",[7]; [19],90
same,"Plant response rating, Barnyardgrass",[7]; [20],70
same,"Plant response rating, Barnyardgrass",[7]; [21],100
same,"Plant response rating, Wheat",[8]; [18],20
same,"Plant response rating, Wheat",[8]; [19],60
same,"Plant response rating, Wheat",[8]; [20],0
same,"Plant response rating, Wheat",[8]; [26],20
same,"Plant response rating, Foxtail, Giant",[9]; [18],70
same,"Plant response rating, Foxtail, Giant",[9]; [19],80
same,"Plant response rating, Foxtail, Giant",[9]; [20],70
same,"Plant response rating, Foxtail, Giant",[9]; [21],90
same,"Plant response rating, Morningglory",[10]; [18],100
same,"Plant response rating, Morningglory",[10]; [19],100
same,"Plant response rating, Morningglory",[10]; [20],40
same,"Plant response rating, Morningglory",[10]; [21],90
same,"Plant response rating, Velvetleaf",[11]; [18],100
same,"Plant response rating, Velvetleaf",[11]; [19],100
same,"Plant response rating, Velvetleaf",[11]; [20],80
same,"Plant response rating, Velvetleaf",[11]; [26],100
